The subject of data set [1] is primary neural cortical cultures. The data set can be described thus: Peptide neurotoxicity, CellTiter-Blue viability assay. Type of data set: cell-based, Wistar rat. The note with it: for Neural viability, relative to non-insulted control: 100 µM; for Concentration at which neurotoxic impact was visible: tested 1, 10, 50, 100, 200 µM. On the procedure: (§1) All animal experiments were conducted in accord with the permission of the Local Bioethics Committee. Primary cortical neurons were isolated from Wistar rat embryos at embryonic day 18.5 (E18.5). Pregnant females were euthanized in a CO2 chamber, and the embryos were immediately removed in order to microdissect the brains. The cortices were excised, transferred to Hank’s Balanced Salt Solution (HBSS, Gibco, Waltham, MA, USA), supplemented with a 1% penicillin/streptomycin mixture (Gibco, Waltham, MA, USA) and washed. Afterwards, the tissue was trypsinized (2.5% trypsin, Gibco, Waltham, MA, USA) for 10 min at 37 °C, and homogenized gently by re-suspension with a sterile tip of a pipette. The cell suspension was centrifuged in 300 rcf for 4 min and re-suspended in Neurobasal-A medium (Gibco, Waltham, MA, USA) supplemented to final concentration with 1 mM sodium pyruvate, 12.5 mM glucose 2% B27 (Gibco, Waltham, MA, USA), […] L-glutamine, […], a 1% penicillin/streptomycin mixture, and seeded in a 24-well plate poly-D-lysine (PDL)-coated (BioCoat, Corning, Tewksburry, MA, USA) in the number of 200,000 cells per well. The neural cultures were incubated in a CO2 chamber (5%, 95% air balance, 98% humidity, 37 °C) for 14 days and were used on culture day in vitro (DIV) 14–15.
The influence of all peptides on neural viability was assessed by exposing the cells to different peptide concentrations (1, 10, 50, 100, 200 µM) for 20 h at 37 °C in a 5% CO2 chamber. The assessments were performed in 24-well PDL-coated plates (BioCoat, Corning, Tewksbury, MA, USA) with a working volume of 500 µL/well. The respective peptide solutions were prepared in culture medium so that in all wells only 50 µL of the medium was exchanged, including control (untreated) samples.
Neural viability was assessed in CellTiter-Blue® (CTB) assay (Promega, cat #G8080, Madison, WI, USA) after 20 h long incubation of cells in standard Neurobasal medium after stressful conditions. The test was performed in 24-well PDL-coated plates (BioCoat, Corning, Tewksbury, MA, USA) and according to the manufacturer’s guideline, which included adding the solution to the neural culture well, followed by incubation for 1–4 h at 37 °C (5% CO2). The fluorescence intensity of the CTB reagent was measured spectrofluorimetrically (560ex/590em) and was proportional to the number of viable cells. The results were calculated as a percentage taking the respective control (non-insulted) measurement as 100% viability.
Each cell viability experiment was performed in at least three biologically independent experiments, in each of which neural cultures were obtained from one female rat. Each female originated from different breeding parents. In one experiment, the viability assessments for each condition were conducted in three plates, with three–four replicate wells per plate. For every plate, relative viability for one condition were averaged, and then used to calculate averaged results for all plates in an experiment. The final values were calculated from averaged results of independent experiments and shown as a mean ± standard deviation (SD), n = 3. The data were analyzed by a two-way ANOVA test with p-value < 0.05 values considered statistically significant.

Data set [2] concerns pre-insulted rat primary neural culture. In words: Pro-viable effect of peptides in a multifactorial in vitro model of acute ischemic stroke, CellTiter-Blue. Type of data set: cell-based, Wistar rat. To be noted: 1 h, then 50 µM peptide 20 h; for Neuroprotection against excitotoxicity: 400 µM glutamic acid, 800 µM NMDA or 800 µM kainic acid. On the procedure: as §1, with “14–15. […]” for “14–15.”
Neural viability was assessed in CellTiter-Blue® (CTB) assay (Promega, cat #G8080, Madison, WI, USA) after 20 h long incubation of cells in standard Neurobasal medium after stressful conditions. […] The fluorescence intensity of the CTB reagent was measured spectrofluorimetrically (560ex/590em) and was proportional to the number of viable cells. The results were calculated as a percentage taking the respective control (non-insulted) measurement as 100% viability. […]
Background: Resazurin is reduced to fluorescent resorufin, in cell work by metabolically active cells.

The next data set has as its system cell membrane. The note with it: previous reports; cited from earlier work. From the text:
Comparing the native Tat(49–57)-NH2 and PTD4, the latter appeared as a better-performing neuroprotectant in the AIS model. Mechanistically, this may indicate a possible correlation between neuroprotection and the structural and acid-base peptide properties.

Entries after “also recorded” stand apart in the source; their conditions may differ. Like-named read-outs stand apart in the source and are kept apart here. Where no end group is shown, it is not given here.

For `C#CC(=O)N[C@@H](CCCNC(=N)N)C(=O)N[C@@H](CCCCN)C(=O)N[C@@H](CCCCN)C(=O)N[C@@H](CCCNC(=N)N)C(=O)N[C@@H](CCCNC(=N)N)C(=O)N[C@@H](CCC(N)=O)C(=O)N[C@@H](CCCNC(=N)N)C(=O)N[C@@H](CCCNC(=N)N)C(=O)N[C@@H](CCCNC(=N)N)C(N)=O` [Prop-Tat], in data set [1], the “Neural viability, relative to non-insulted control” value is listed as under 10%. For the same compound, the “Concentration at which neurotoxic impact was visible” value in data set [1] (20 h exposure, CTB assay) was 1000 nM.
For `CC[C@H](C)[C@H](NC(=O)[C@H](CCCCN)NC(=O)[C@H](CCCCN)NC(=O)[C@H](C)NC(=O)[C@H](CC(C)C)NC(=O)[C@H](C)NC(=O)[C@H](C)NC(=O)[C@H](CC(C)C)NC(=O)[C@H](C)NC(=O)[C@H](CCCCN)NC(=O)[C@H](CC(C)C)NC(=O)[C@H](CC(N)=O)NC(=O)[C@@H](NC(=O)[C@H](CCCCN)NC(=O)CNC(=O)[C@H](CC(C)C)NC(=O)[C@H](CC(C)C)NC(=O)[C@H](Cc1ccc(O)cc1)NC(=O)CNC(=O)[C@H](C)N)[C@@H](C)CC)C(=O)N[C@@H](CC(C)C)C(N)=O` [TP10, reference compound], the “Neural viability, relative to non-insulted control” value in data set [1] was under 10%. Moreover, the “Neurotoxicity ranking among the peptides tested” value in data set [1] (1-200 µM, 20 h exposure, CTB assay) was “highest toxicity”. Further, the “Concentration at which neurotoxic impact was visible” value in data set [1] (20 h exposure, CTB assay) worked out at 1000 nM.
For “RKKR^52RQRRR^57-amide [Tat(49–57)-NH2, reference compound]”, the “Neurotoxicity at higher concentrations” value in data set [1] (>100 µM, 20 h exposure, CTB assay, n = 3) is “most toxic impact; also recorded: significantly neurotoxic”. The Neuroprotection against excitotoxicity result in data set [2] is “significant neuroprotection”.
With “YARAAARQARA-NH2 [PTD4, less basic Ala-substituted analogue of Tat(49–57)-NH2, cell-penetrating peptide]”, in data set [1], the Highest non-toxic concentration turned out to be 50 µM, the “Neurotoxicity at higher concentrations” value is recorded as “significantly neurotoxic”, the “Neurotoxicity at low concentrations” value is recorded as “negligible” and the “Neurotoxicity ranking among the peptides tested” value is recorded as “lowest neurotoxicity”. Further, the Neuroprotection against excitotoxicity result in data set [2] is “significant neuroprotection”. The “Pro-viable activity against acidosis” value in data set [2] (acidosis pH 6.35, 200 mM sodium lactate) is given as “displayed pro-viable activity”. Moreover, in the data set on cell membrane, the “Efficiency of peptide translocation across the cell membrane compared to Tat(49–57)-NH2” value is “almost thirty times higher”.

The values are drawn from PMC8200211, “PTD4 Peptide Increases Neural Viability in an In Vitro Model of Acute Ischemic Stroke” (International Journal of Molecular Sciences, 2021).
